The results in this text go back to ChEMBL document CHEMBL4622910, “Design, synthesis and evaluation of pyrazolopyrimidinone derivatives as novel PDE9A inhibitors for treatment of Alzheimer's disease” (Bioorg Med Chem Lett, 2020).

One may read the solubility as the concentration that dissolves in the medium under given conditions. Read a high solubility as a readily soluble substance.

In brackets after ≈: the same amount, converted by molar mass.

The species named for data set [1] is Homo sapiens. The data set can be described thus: Selectivity for PDE1 (unknown origin) over PDE9 (unknown origin).
The species named for data set [2] is Homo sapiens. The data set can be described thus: Selectivity for PDE5 (unknown origin) over PDE9 (unknown origin).
The nature of data set [3]: Solubility of the compound in water. Type of data set: physicochemical.
Data set [4] in a line: Half life in rat liver microsomes. The data set is classed as ADME, Microsome. (Microsomes from liver hold many membrane-bound enzymes, among them those of drug oxidation.)
Data set [5] can be described thus: Hepatic clearance in rat liver microsomes. Type of data set: ADME, Microsome.
Data set [6] in a line: Metabolic stability in rat liver microsomes. Type of data set: ADME, Microsome.

`CC(Nc1nc2c(cnn2C2CCCC2)c(=O)[nH]1)c1ccc(Cl)cc1` (stereo unspecified): the Selectivity ratio in data set [1] worked out at 46; in data set [2], 31.

In data set [3], `C[C@@H](Nc1nc2c(cnn2C2CCCC2)c(=O)[nH]1)C(=O)Nc1ccc2c(c1)CNC2=O` yielded a solubility of 0.1 µg/mL (≈ 0.237 µM).

For `C[C@@H](Nc1nc2c(cnn2C2CCCC2)c(=O)[nH]1)C(=O)Nc1ccc(C(F)(F)F)cn1`, the solubility in data set [3] turned out to be 6.3 µg/mL (≈ 14.5 µM).

Turning to `C[C@@H](Nc1nc2c(cnn2C2CCCC2)c(=O)[nH]1)C(=O)Nc1ccc2c(c1)COC2`, in data set [3], the concentration in solution (solubility) was 0.03 µg/mL (≈ 0.0734 µM). Compared with the last molecule, the solubility is about 210-fold lower.

Take `C[C@@H](Nc1nc2c(cnn2C2CCCC2)c(=O)[nH]1)C(=O)Nc1ccc2c(c1)CCC2=O`: the solubility in data set [3] amounted to 6 µg/mL (≈ 14.3 µM).

`C[C@@H](Nc1nc2c(cnn2C2CCCC2)c(=O)[nH]1)C(=O)Nc1ccncc1`: in data set [3], the solubility was 20 µg/mL (≈ 54.4 µM).

Take `C[C@@H](Nc1nc2c(cnn2C2CCCC2)c(=O)[nH]1)C(=O)Nc1ccc(C(F)(F)F)nc1`: the concentration in solution in data set [3] (solubility) came to 5.1 µg/mL (≈ 11.7 µM). This solubility lies about 3.9-fold lower than the previous one.

As to `C[C@@H](Nc1nc2c(cnn2C2CCCC2)c(=O)[nH]1)C(=O)Nc1cnc(Cl)nc1`, in data set [3], the solubility was found to be 0.5 µg/mL (≈ 1.24 µM).

In data set [3], `C[C@@H](Nc1nc2c(cnn2C2CCCC2)c(=O)[nH]1)C(=O)Nc1ccc2[nH]cnc2c1` came in with a solubility of 195 µg/mL (≈ 480 µM). The same molecule yielded a t1/2 in data set [4] of 57 min. The same molecule yielded a CLH in data set [5] of 9.07 mL/min/kg. The molecule further came in with a Stability in data set [6] of 54.7%.

In data set [3], `C[C@@H](Nc1nc2c(cnn2C2CCCC2)c(=O)[nH]1)C(=O)Nc1nccs1` yielded a solubility of 25 µg/mL (≈ 66.9 µM).

As to `C[C@@H](Nc1nc2c(cnn2C2CCCC2)c(=O)[nH]1)C(=O)Nc1ccc2nccn2c1`, the concentration in solution in data set [3] (solubility) came to 74 µg/mL (≈ 182 µM). This molecule registered a t1/2 in data set [4] of 32.6 min. In data set [5], this molecule displayed a CLH of 11.8 mL/min/kg. Also, the Stability in data set [6] is on record as 40.8%.

With `C[C@@H](Nc1nc2c(cnn2C2CCCC2)c(=O)[nH]1)C(=O)Nc1ccc2[nH]ncc2c1`, in data set [3], the concentration in solution (solubility) was 103 µg/mL (≈ 253 µM). The molecule also displayed a t1/2 in data set [4] of 43.4 min. The CLH in data set [5] is 10 mL/min/kg. The same molecule gave a Stability in data set [6] of 47.8%.

`COc1ccc(NC(=O)[C@@H](C)Nc2nc3c(cnn3C3CCCC3)c(=O)[nH]2)cc1` had a solubility in data set [3] of 0.04 µg/mL (≈ 0.101 µM). The t1/2 in data set [4] stood at 23.3 min. Also, the CLH in data set [5] came out at 65.8 mL/min/kg.

As for `C[C@@H](Nc1nc2c(cnn2C2CCCC2)c(=O)[nH]1)C(=O)Nc1ccc(F)nc1`, the concentration in solution in data set [3] (solubility) was 52 µg/mL (≈ 135 µM). Besides, the t1/2 in data set [4] worked out at 32.8 min. The same molecule registered a CLH in data set [5] of 11.8 mL/min/kg. Besides, the Stability in data set [6] is on record as 41%.

`C[C@@H](Nc1nc2c(cnn2C2CCCC2)c(=O)[nH]1)C(=O)NC1=NCCS1` showed a solubility in data set [3] of 0.03 µg/mL (≈ 0.0799 µM).

In the case of `C[C@@H](Nc1nc2c(cnn2C2CCCC2)c(=O)[nH]1)C(=O)Nc1ccc2[nH]ccc2c1`, the concentration in solution in data set [3] (solubility) was 0.1 µg/mL (≈ 0.247 µM).
